Test results taken from patent publication US5254563A, “Beta-carbolines, process for their production and their use in pharmaceutical agents” (Schering Aktiengesellschaft, priority 1989, dated 1993).

Tests used:
[1] = Metabolic stability in human liver homogenate; assay type: in vitro ADME; conditions: 2 hours at 37° C., HPLC/fluorimetry, read-out: Metabolic Stability (substance remaining)
Protocol: The metabolic stability is determined by a homogenate of hepatic tissue in physiological common salt solution being incubated with the test substance for 0 or 2 hours at 37° C. Then, the incubation batch is extracted and the content of test substance in the extract is determined by HPLC/fluorimetry. The substance remaining after 2 hours in comparison with 0 hours is expressed in percent stability.

[2] = tested on: benzodiazepine receptors; assay: Inhibition of the H^3-BD binding in vivo (displacement of radioactively-labeled flunitrazepam); conditions: mice, i.p.; 3H-flunitrazepam i.v. after 15 minutes, forebrains removed after another 20 minutes; dose reducing specific binding to 50% of control

Structure (SMILES): COCc1c(C(=O)c2ccccc2)ncc2[nH]c3ccc(OCc4ccccc4)cc3c12 [A, 6-Benzyloxy-4-methoxymethyl-3-benzoyl-beta-carboline]
- remaining at 2 h [1]: 72%
- Inhibition of the H^3 -BD binding In vivo ED50 [2]: 5.0 mg/kg

Structure (SMILES): COCc1c(C(=O)Oc2ccccc2)ncc2[nH]c3ccc(OCc4ccccc4)cc3c12 [B, 6benzyloxy-4-methoxymethyl-beta-carboline-3-carboxylic acid phenyl ester, reference compound]
- Inhibition of the H^3 -BD binding In vivo ED50 [2]: greater than 90 mg/kg
